From US20220388964A1 (HiberCell, Inc., priority 2019, published 2022)

Molecular target: GCN2 (Homo sapiens, UniProt Q9P2K8)
Assay: TR-FRET biochemical assay for inhibition of GCN2 (Example 106, for Example 1-4BB)

Sequence of GCN2 (Q9P2K8 whole entry): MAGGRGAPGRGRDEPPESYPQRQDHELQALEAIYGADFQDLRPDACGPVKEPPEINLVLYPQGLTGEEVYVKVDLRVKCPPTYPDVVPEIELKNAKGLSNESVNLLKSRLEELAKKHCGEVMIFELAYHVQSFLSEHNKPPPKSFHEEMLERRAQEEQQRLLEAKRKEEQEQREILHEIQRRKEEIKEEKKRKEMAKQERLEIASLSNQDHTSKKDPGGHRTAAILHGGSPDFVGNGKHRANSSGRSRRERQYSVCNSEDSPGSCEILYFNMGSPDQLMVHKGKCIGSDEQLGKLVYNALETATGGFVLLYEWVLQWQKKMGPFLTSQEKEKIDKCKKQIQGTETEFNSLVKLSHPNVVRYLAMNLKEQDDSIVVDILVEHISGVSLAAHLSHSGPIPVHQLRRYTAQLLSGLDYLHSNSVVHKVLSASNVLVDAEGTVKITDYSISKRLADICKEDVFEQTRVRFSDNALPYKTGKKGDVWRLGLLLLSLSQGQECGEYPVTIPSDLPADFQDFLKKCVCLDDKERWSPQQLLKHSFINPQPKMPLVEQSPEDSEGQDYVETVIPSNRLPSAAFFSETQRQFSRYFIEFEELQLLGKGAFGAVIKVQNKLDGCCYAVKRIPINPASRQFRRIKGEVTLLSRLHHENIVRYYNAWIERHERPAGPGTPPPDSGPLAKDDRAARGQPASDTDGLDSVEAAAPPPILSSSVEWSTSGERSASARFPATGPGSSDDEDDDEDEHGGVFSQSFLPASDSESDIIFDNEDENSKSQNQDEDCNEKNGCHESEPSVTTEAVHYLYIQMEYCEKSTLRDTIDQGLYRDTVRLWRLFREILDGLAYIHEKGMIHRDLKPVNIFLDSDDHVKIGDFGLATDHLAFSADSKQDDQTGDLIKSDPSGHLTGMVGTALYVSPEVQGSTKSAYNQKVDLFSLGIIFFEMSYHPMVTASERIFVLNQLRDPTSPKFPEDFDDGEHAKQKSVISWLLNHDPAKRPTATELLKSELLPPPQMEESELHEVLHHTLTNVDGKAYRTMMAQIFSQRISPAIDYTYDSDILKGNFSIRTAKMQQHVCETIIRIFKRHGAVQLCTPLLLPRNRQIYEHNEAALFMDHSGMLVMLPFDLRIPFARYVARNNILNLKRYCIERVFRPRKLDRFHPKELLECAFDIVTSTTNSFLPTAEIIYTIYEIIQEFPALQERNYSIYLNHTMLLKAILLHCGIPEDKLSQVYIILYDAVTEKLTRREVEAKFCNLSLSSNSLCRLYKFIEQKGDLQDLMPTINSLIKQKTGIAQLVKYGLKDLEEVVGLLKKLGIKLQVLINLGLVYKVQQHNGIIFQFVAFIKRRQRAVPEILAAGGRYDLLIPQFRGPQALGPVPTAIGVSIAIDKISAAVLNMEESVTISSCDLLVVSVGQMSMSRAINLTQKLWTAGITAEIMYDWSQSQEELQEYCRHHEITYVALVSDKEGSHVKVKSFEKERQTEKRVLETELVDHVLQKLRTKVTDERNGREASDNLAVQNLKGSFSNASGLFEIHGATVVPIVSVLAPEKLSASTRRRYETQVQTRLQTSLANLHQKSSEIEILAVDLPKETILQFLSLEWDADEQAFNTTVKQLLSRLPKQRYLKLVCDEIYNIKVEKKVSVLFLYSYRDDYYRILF

Q: Which IC50 (Table 9) does the source give for `Cc1c(CO)cc(F)cc1S(=O)(=O)Nc1ccc(F)c(-c2ccc3c(C(N)=O)n[nH]c3c2F)c1F` [Example 4G] here?
A: < 500 nM

Q: Which IC50 (Table 9) does the source give for `Cc1c(CO)cc(F)cc1S(=O)(=O)Nc1ccc(F)c(-c2ccc3c(C(=O)NCCCO)n[nH]c3c2F)c1F` [Example 4H] here?
A: < 500 nM

Q: Which IC50 (Table 9) does the source give for `Cc1c(CO)cc(F)cc1S(=O)(=O)Nc1ccc(F)c(-c2ccc3c(C(=O)Nc4cn[nH]c4)n[nH]c3c2F)c1F` [Example 4K] here?
A: < 500 nM

Q: `CN(C)CCCNC(=O)c1n[nH]c2c(F)c(-c3c(F)ccc(NS(=O)(=O)c4cc(F)cc(CO)c4F)c3F)ccc12` [Example 4P] was tested. Which IC50 (Table 9) did it give?
A: < 500 nM

Q: Which IC50 (Table 9) does the source give for `NC(=O)c1n[nH]c2c(F)c(-c3c(F)ccc(NS(=O)(=O)c4cc(F)cc5c4CCC5O)c3F)ccc12` (stereo not drawn) [Example 4R] here?
A: < 500 nM

Q: Which IC50 (Table 9) does the source give for `NC(=O)c1n[nH]c2c(F)c(-c3c(F)ccc(NS(=O)(=O)c4cc(F)cc5c4CCC5=O)c3F)ccc12` [Example 4S] here?
A: < 500 nM

Q: With `O=C(NCCCO)c1n[nH]c2c(F)c(-c3c(F)ccc(NS(=O)(=O)c4cc(F)cc5c4CCC5O)c3F)ccc12` (stereo not drawn) [Example 4T] as the compound, how does the IC50 (Table 9) read?
A: < 500 nM

Q: How did the IC50 (Table 9) turn out when `O=C1CCc2c1cc(F)cc2S(=O)(=O)Nc1ccc(F)c(-c2ccc3c(C(=O)NCCCO)n[nH]c3c2F)c1F` [Example 4U] was run?
A: < 500 nM

Q: How did the IC50 (Table 8) turn out when `COc1ncc(Cl)cc1S(=O)(=O)Nc1ncc(F)c(-c2ccc3c(-c4ncc[nH]4)n[nH]c3c2F)c1F` [Example 6, 5-Chloro-N-(3,5-difluoro-4-(7-fluoro-3-(1H-imidazol-2-yl)-1H-indazol-6-yl)pyridin-2-yl)-2-methoxypyridine-3-sulfonamide] was run?
A: < 500 nM

Q: Which IC50 (Table 8) does the source give for `COc1ncc(Cl)cc1S(=O)(=O)Nc1ccc(F)c(-c2ccc3c(N)n[nH]c3c2F)c1F` [Example 7, N-(3-(3-Amino-7-fluoro-1H-indazol-6-yl)-2,4-difluorophenyl)-5-chloro-2-methoxypyridine-3-sulfonamide] here?
A: 500 to 2500 nM

Q: With `COc1ncc(Cl)cc1S(=O)(=O)Nc1ccc(F)c(-c2ccc3c(NC(C)=O)n[nH]c3c2F)c1F` [Example 8, N-(6-(3-((5-Chloro-2-methoxypyridine)-3-sulfonamido)-2,6-difluorophenyl)-7-fluoro-1H-indazol-3-yl)acetamide] as the compound, how does the IC50 (Table 8) read?
A: 500 to 2500 nM

Q: For `O=S(=O)(Nc1ccc(F)c(-c2ccc3c(-c4ccccc4)n[nH]c3c2)c1F)c1cc(F)ccc1F` [Example 10, N-(2,4-Difluoro-3-(3-phenyl-1H-indazol-6-yl)phenyl)-2,5-difluorobenzenesulfonamide], which IC50 (Table 9) is on record?
A: 2500 to 10000 nM

Q: How did the IC50 (Table 9) turn out when `COc1ncc(Cl)cc1S(=O)(=O)Nc1nccc(-c2ccc3c(-c4ncc[nH]4)n[nH]c3c2F)c1F` [Example 11, 5-Chloro-N-(3-fluoro-4-(7-fluoro-3-(1H-imidazol-2-yl)-1H-indazol-6-yl)pyridin-2-yl)-2-methoxypyridine-3-sulfonamide] was run?
A: > 10000 nM

Q: With `COc1ncc(F)cc1S(=O)(=O)Nc1cccc(-c2ccc3c(C4CCC(=O)N4)n[nH]c3c2F)c1F` (stereo not drawn) [Example 12, 5-Fluoro-N-(2-fluoro-3-(7-fluoro-3-(5-oxopyrrolidin-2-yl)-1H-indazol-6-yl)phenyl)-2-methoxypyridine-3-sulfonamide] as the compound, how does the IC50 (Table 9) read?
A: > 10000 nM

Q: `COc1ncc(F)cc1S(=O)(=O)Nc1cccc(-c2ccc3c(-c4nc(CO)c[nH]4)n[nH]c3c2F)c1F` [Example 13, 5-Fluoro-N-(2-fluoro-3-(7-fluoro-3-(4-(hydroxymethyl)-1H-imidazol-2-yl)-1H-indazol-6-yl)phenyl)-2-methoxypyridine-3-sulfonamide] was tested. Which IC50 (Table 9) did it give?
A: < 500 nM

Q: Which IC50 (Table 9) does the source give for `COc1cccc(-c2n[nH]c3c(F)c(-c4c(F)ccc(NS(=O)(=O)c5cc(F)cnc5C)c4F)ccc23)n1` [Example 14, N-(2,4-Difluoro-3-(7-fluoro-3-(6-methoxypyridin-2-yl)-1H-indazol-6-yl)phenyl)-5-fluoro-2-methylpyridine-3-sulfonamide] here?
A: 500 to 2500 nM

Q: How did the IC50 (Table 9) turn out when `Cc1ncc(F)cc1S(=O)(=O)Nc1ccc(F)c(-c2ccc3c(-c4cccc(=O)[nH]4)n[nH]c3c2F)c1F` [Example 15, N-(2,4-Difluoro-3-(7-fluoro-3-(6-oxo-1,6-dihydropyridin-2-yl)-1H-indazol-6-yl)phenyl)-5-fluoro-2-methylpyridine-3-sulfonamide] was run?
A: < 500 nM

Q: For `COc1ncc(F)cc1S(=O)(=O)Nc1ccc(F)c(-c2ccc3c(-c4nc(Cl)c[nH]4)n[nH]c3c2F)c1F` [Example 17, N-(3-(3-(4-Chloro-1H-imidazol-2-yl)-7-fluoro-1H-indazol-6-yl)-2,4-difluorophenyl)-5-fluoro-2-methoxypyridine-3-sulfonamide], which IC50 (Table 9) is on record?
A: < 500 nM

Q: `COc1ncc(F)cc1S(=O)(=O)Nc1cccc(-c2ccc3c(-c4ncc[nH]4)n[nH]c3c2Cl)c1F` [Example 18, N-(3-(7-Chloro-3-(1H-imidazol-2-yl)-1H-indazol-6-yl)-2-fluorophenyl)-5-fluoro-2-methoxypyridine-3-sulfonamide] was tested. Which IC50 (Table 9) did it give?
A: 500 to 2500 nM

Q: With `COc1ncc(F)cc1S(=O)(=O)Nc1ccc(F)c(-c2ccc3c(-c4nc(C#N)c[nH]4)n[nH]c3c2F)c1F` [Example 19, N-(3-(3-(4-Cyano-1H-imidazol-2-yl)-7-fluoro-1H-indazol-6-yl)-2,4-difluorophenyl)-5-fluoro-2-methoxypyridine-3-sulfonamide] as the compound, how does the IC50 (Table 9) read?
A: < 500 nM

Q: With `COc1ncc(F)cc1S(=O)(=O)Nc1ccc(F)c(-c2ccc3c(-c4nc(C(N)=O)c[nH]4)n[nH]c3c2F)c1F` [Example 20, 2-(6-(2,6-Difluoro-3-((5-fluoro-2-methoxypyridine)-3-sulfonamido)phenyl)-7-fluoro-1H-indazol-3-yl)-1H-imidazole-4-carboxamide] as the compound, how does the IC50 (Table 9) read?
A: < 500 nM

Q: How did the IC50 (Table 9) turn out when `COc1ncc(F)cc1S(=O)(=O)Nc1ccc(F)c(-c2ccc3c(-c4nc(C(O)CO)c[nH]4)n[nH]c3c2F)c1F` (stereo not drawn) [Example 21, N-(3-(3-(4-(1,2-Dihydroxyethyl)-1H-imidazol-2-yl)-7-fluoro-1H-indazol-6-yl)-2,4-difluorophenyl)-5-fluoro-2-methoxypyridine-3-sulfonamide] was run?
A: < 500 nM

Q: For `COc1ncc(F)cc1S(=O)(=O)Nc1cccc(-c2ccc3c(-c4ncc[nH]4)n[nH]c3c2C)c1F` [Example 22, N-(3-(3-(1H-Imidazol-2-yl)-7-methyl-1H-indazol-6-yl)-2-fluorophenyl)-5-fluoro-2-methoxypyridine-3-sulfonamide], which IC50 (Table 9) is on record?
A: 500 to 2500 nM

Q: With `COc1ncc(F)cc1S(=O)(=O)Nc1ccc(F)c(-c2ccc3c(C(=O)NCCNC(C)=O)n[nH]c3c2F)c1F` [Example 23, N-(2-Acetamidoethyl)-6-(2,6-difluoro-3-((5-fluoro-2-methoxypyridine)-3-sulfonamido)phenyl)-7-fluoro-1H-indazole-3-carboxamide] as the compound, how does the IC50 (Table 9) read?
A: 500 to 2500 nM

Q: How did the IC50 (Table 9) turn out when `CNC(=O)c1n[nH]c2c(F)c(-c3c(F)cnc(NS(=O)(=O)c4cc(F)cnc4C)c3F)ccc12` [Example 24, 6-(3,5-Difluoro-2-((5-fluoro-2-methylpyridine)-3-sulfonamido)pyridin-4-yl)-7-fluoro-N-methyl-1H-indazole-3-carboxamide] was run?
A: > 10000 nM

Q: `COc1ccc(NS(=O)(=O)c2cc(F)cnc2OC)c(F)c1-c1ccc2c(C(=O)NCCCO)n[nH]c2c1F` [Example 25, 7-Fluoro-6-(2-fluoro-3-((5-fluoro-2-methoxypyridine)-3-sulfonamido)-6-methoxyphenyl)-N-(3-hydroxypropyl)-1H-indazole-3-carboxamide] was tested. Which IC50 (Table 9) did it give?
A: 2500 to 10000 nM

Q: `COc1ncc(F)cc1S(=O)(=O)Nc1cccc(-c2ccc3c(C(=O)NCCCO)n[nH]c3c2F)c1F` [Example 26, 7-Fluoro-6-(2-fluoro-3-((5-fluoro-2-methoxypyridine)-3-sulfonamido)phenyl)-N-(3-hydroxypropyl)-1H-indazole-3-carboxamide] was tested. Which IC50 (Table 9) did it give?
A: < 500 nM

Q: With `Cc1ncc(F)cc1S(=O)(=O)Nc1cc(F)cc(-c2ccc3c(-c4ncc[nH]4)n[nH]c3c2F)c1F` [Example 27, N-(2,5-Difluoro-3-(7-fluoro-3-(1H-imidazol-2-yl)-1H-indazol-6-yl)phenyl)-5-fluoro-2-methylpyridine-3-sulfonamide] as the compound, how does the IC50 (Table 9) read?
A: < 500 nM

Q: `COc1ncc(F)cc1S(=O)(=O)Nc1ncc(F)c(-c2ccc3c(-c4ncc[nH]4)n[nH]c3c2F)c1F` [Example 28, N-(3,5-Difluoro-4-(7-fluoro-3-(1H-imidazol-2-yl)-1H-indazol-6-yl)pyridin-2-yl)-5-fluoro-2-methoxypyridine-3-sulfonamide] was tested. Which IC50 (Table 9) did it give?
A: < 500 nM

Q: With `COc1ncc(F)cc1S(=O)(=O)Nc1ccnc(-c2ccc3c(-c4ncc[nH]4)n[nH]c3c2F)c1C#N` [Example 29, N-(3-Cyano-2-(7-fluoro-3-(1H-imidazol-2-yl)-1H-indazol-6-yl)pyridin-4-yl)-5-fluoro-2-methoxypyridine-3-sulfonamide] as the compound, how does the IC50 (Table 9) read?
A: 2500 to 10000 nM

Q: `Cc1ccc(F)cc1S(=O)(=O)Nc1ncc(F)c(-c2ccc3c(-c4ncc[nH]4)n[nH]c3c2F)c1F` [Example 30, N-(3,5-Difluoro-4-(7-fluoro-3-(1H-imidazol-2-yl)-1H-indazol-6-yl)pyridin-2-yl)-5-fluoro-2-methylbenzenesulfonamide] was tested. Which IC50 (Table 9) did it give?
A: < 500 nM

Q: `COc1ncc(F)cc1S(=O)(=O)Nc1nccc(-c2ccc3c(-c4ncc[nH]4)n[nH]c3c2F)c1C#N` [Example 31] was tested. Which IC50 (Table 9) did it give?
A: 500 to 2500 nM

Q: For `Cc1c(CO)cc(F)cc1S(=O)(=O)Nc1ccc(F)c(-c2ccc3c(-c4ncc[nH]4)n[nH]c3c2F)c1F` [Example 32, N-(2,4-Difluoro-3-(7-fluoro-3-(1H-imidazol-2-yl)-1H-indazol-6-yl)phenyl)-5-fluoro-3-(hydroxymethyl)-2-methylbenzenesulfonamide], which IC50 (Table 9) is on record?
A: < 500 nM

Q: `COc1ncc(Cl)cc1S(=O)(=O)Nc1cccc(-c2cc3[nH]nc(C(=O)NCCCN(C)C)c3cn2)c1F` [Example 35, 6-[3-[(5-chloro-2-methoxy-3-pyridyl)sulfonylamino]-2-fluoro-phenyl]-N-[3-(dimethylamino)propyl]-1H-pyrazolo[4,3-c]pyridine-3-carboxamide] was tested. Which IC50 (Table 9) did it give?
A: < 500 nM

Q: `COc1ncc(Cl)cc1S(=O)(=O)Nc1cc(F)cc(-c2ncc3c(-c4ncc[nH]4)n[nH]c3c2F)c1F` [Example 36, 5-chloro-N-[2,5-difluoro-3-[7-fluoro-3-(1H-imidazol-2-yl)-1H-pyrazolo[4,3-c]pyridin-6-yl]phenyl]-2-methoxy-pyridine-3-sulfonamide] was tested. Which IC50 (Table 9) did it give?
A: < 500 nM

Q: `Cc1ccc(F)cc1S(=O)(=O)Nc1ccc(F)c(-c2ncc3c(-c4ncc[nH]4)n[nH]c3c2F)c1F` [Example 38, N-[2,4-difluoro-3-[7-fluoro-3-(1H-imidazol-2-yl)-1H-pyrazolo[4,3-c]pyridin-6-yl]phenyl]-5-fluoro-2-methyl-benzenesulfonamide] was tested. Which IC50 (Table 9) did it give?
A: < 500 nM
